Data: patent US20200171118A1
Where two headings read alike, the source gives them in different places.

Tests used:
Escherichia coli MV1184 = assay: MIC/MBC determination, sterilizing effect (microplate, BHI liquid medium); assay type: cell-based; settings: E. coli MV1184; substance 12.5 to 20 ppm, sodium chlorite about 0.14 mM to 0.22 mM
[1] = Lewis acidity measuring method (1): rate of oxidation of CoTPP by O2 in the presence of the Lewis acid; assay type: physicochemical; settings: for Lewis acidity (ΔE value): calculated from rate of oxidization of CoTPP with O2

Row | Compound | sterilizing action (sterilizing effect) of drug made from the substance and sodium chlorite (Escherichia coli MV1184) | Lewis acidity (ΔE value) [1] | also measured
1 | NCC(=O)O [glycine] | has a sterilizing action (sterilizing effect) |  | 
2 | C[N+](C)(C)CC(=O)O [Betaine] |  | 0.67 eV | 
3 | N[C@@H](CO)C(=O)O [L-serine] | has a sterilizing action (sterilizing effect) |  | 
4 | Cc1cc2nc3cc(C)c(N)cc3[n+](-c3ccccc3)c2cc1N.[Cl-] [Safranine] |  | 0.67 eV | 
5 | oxidized glutathione | has a sterilizing action (sterilizing effect) |  | 
6 | CCCC[N+](CCCC)(CCCC)CCCC.[Cl-] [Tetrabutylammonium chloride] | has a sterilizing action (sterilizing effect) | 0.63 eV | 
7 | Cl.N [Ammonium chloride] | has a sterilizing action (sterilizing effect) | 0.66 eV | 
8 | C[n+]1cccc(C(=O)[O-])c1 [Trigonelline] |  | 0.69 eV | 
9 | CC[N+](CC)(CC)Cc1ccccc1.[Cl-] [Benzyltriethyl ammonium chloride] |  | 0.54 eV | 
10 | CCCC[N+](CCCC)(CCCC)CCCC.F[P-](F)(F)(F)(F)F [tetrabutylammonium hexafluorophosphate] |  |  | kcat, reaction rate constant of reaction between CoTPP and oxygen in the presence of a Lewis acid [1]: >0.1 M^−2 s^−1
11 | C[N+](C)(C)CCOC(N)=O [Carbamylcholine] |  | 0.52 eV | 
12 | CCCCCCCCCCCCCCCCCC[N+](C)(C)Cc1ccccc1.[Cl-] | has a sterilizing action (sterilizing effect) | 0.52 eV | kcat, reaction rate constant of reaction between CoTPP and oxygen in the presence of a Lewis acid ([1]; acetonitrile, saturated O2, room temperature): 0.18 M^−2 s^−1
13 | CN.Cl [methylammonium chloride] | has a sterilizing action (sterilizing effect) | 0.70 eV | 
14 | benzethonium chloride | has a sterilizing action (sterilizing effect) |  | 
15 | C[n+]1ccccc1C=NO.[I-] [pralidoxime methyl iodide] |  | 0.60 eV | 
16 | N[C@@H](CC(=O)O)C(=O)O [L-aspartate] | has a sterilizing action (sterilizing effect) |  | 
17 | O=C(O)[C@@H]1CCCN1 [proline] | has a sterilizing action (sterilizing effect) |  | 
18 | C[N+](C)(C)C.[Cl-] [Tetramethylammonium chloride] |  | 0.50 eV | 
19 | CC(=O)OCC[N+](C)(C)C [Acetylcholine] |  | 0.51 eV | 
